Assays:
[1] = test system: Nitrogen Oxide (NO) generation; test: Inhibition of nitrogen oxide (NO) generation in LPS-treated Raw 264.7 cells (Griess); format: cell-based, mouse; details: Raw 264.7, LPS 500 ng/ml, 24 hours
Experimental: Raw 264.7 (ATCC TIB71) cells were inoculated in a 96-well plate containing the same medium as used in Experimental Example 1 at the density of 1×10^5 cells/well. The cells were cultured in 5% CO2 at 37° C. for 4 hours to attach the cells onto the plate. The cells were treated with each sample at different concentrations, followed by further culture for 1 hour. […] were treated thereto at the final concentration of 500 ng/ml, followed by further culture for 24 hours. 100 μl of the supernatant was taken and transferred in a new plate, which was mixed with Griess reagent (a mixture of 1% sulfanilamide, 0.1% N-[1-naphthyl]-ethylenediamine dihydrochloride, and 5% phosphoric acid), followed by reaction for 10 minutes. Then, OD540 was measured. NO generation was quantified by using the sodium nitrite standard curve prepared from […] dissolved in the same medium at different concentrations. Considering the NO generation of the inflammation induced macrophages as 100%, the NO generation inhibition rate was calculated and presented in Table 7.

[2] = test system: Raw 264.7 (ATCC TIB71) cells; test: Evaluation of cell survival rate of macrophages (MTT); format: cell-based, mouse; details: Raw 264.7, 10 μM, 24 hours
Experimental: Raw 264.7 (ATCC TIB71) cells, the mouse derived macrophages', were inoculated in a 96-well plate containing DMEM (Dulbecco's modified Eagle medium; Welgene, Korea) supplemented with 10% FBS (Fetal Bovine Serum), 2 mM glutamine, penicillin (100 unit/ml), and streptomycin (100 μg/ml) at the density of 1×10^4 cells/well. The cells were cultured in 5% CO2 at 37° C. for 4 hours to attach the cells onto the plate. Next, the cells were treated with each sample at different concentrations, followed by further culture for 24 hours. To investigate the cell survival rate, 5 mg/ml of MTT (3-(4,5-dimethylthiazol-2-yl)-2,5-diphenyltetrazoliumbromide, Amresco, OH, USA) was distributed thereto (10 μl/well), followed by culture for 4 hours. Then, the supernatant was eliminated. Formazan reduced from MTT by mitochondria was dissolved in 100 μl of DMSO and then OD570 was measured. 0.2% DMSO was used for the negative control.

[3] = test system: bronchial asthma induced animal model; test: Airway hyperreactivity (Penh) in ovalbumin-induced bronchial asthma mice; format: in vivo, mouse; details: OVA asthma Balb/c mice, 5 or 15 mg/kg PO, FIG. 1
Experimental: (§1) 6 week old Balb/c female mice in the average weight of 20 g were adapted for 1 week. 2 mg of aluminum hydroxide (A8222, Sigma, St. Louis, Mo.) and 20 μg of ovalbumin (A5503, sigma, St. Louis, Mo.) were suspended in phosphate buffer (pH 7.4). Each mouse was administered with 200 μl of the phosphate buffer suspension via intraperitoneal injection for sensitization at 2 weeks intervals. The mouse was forced to inhale 1% ovalbumin (OVA) through ultrasonic atomizer for 30 minutes a day for 3 days after the first intraperitoneal injection of ovalbumin. 24 hours after the antigen administration, airway hyperreactivity was measured. 48 hours later, a lethal dose of pentobarbital (Entobar, Hanlim Pharma. Co., Ltd.) was administered to the mouse. The bronchus was opened and the alveoli were washed with 1.4 ml of saline. Then, the test samples were obtained. The normal control (NC) was not administered with ovalbumin nor inhaled. […]
After performing the experiment of Experimental Example <3-1> above, airway resistance was measured by using one chamber plethysmography (All Medicus, Seoul) to obtain Penh (enhanced pause) values which were the mathematically calculated numbers reflecting airway obstruction in order to measure airway hyperreactivity. To measure Penh value, basal value in normal breathing status was first measured. […]

lung tissue sections = test: Histopathological analysis of lung (H&E, PAS) in asthma mice; format: in vivo, mouse; details: OVA asthma Balb/c mice, 5 or 15 mg/kg PO
Experimental: as §1, with “inhaled. The asthma induced group (OVA) was administered with ovalbumin and inhaled to induce bronchial asthma.” for “inhaled.”
To evaluate the level of mucus production by investigating the increase of the number of goblet cells, the mucus secretion cells, the lung was extracted from the mouse without bronchoalveolar lavage. […] The proliferation of goblet cells was evaluated by measuring the ratio of the goblet cells selected by the staining above in bronchial epithelial cells.

interleukin 5 = test: Interleukin 5 in bronchoalveolar lavage fluid of asthma mice (ELISA); format: in vivo, mouse; details: OVA asthma Balb/c mice, 5 or 15 mg/kg PO, FIG. 2
Experimental: as §1, with “inhaled. The asthma induced group (OVA) was administered with ovalbumin and inhaled to induce bronchial asthma.” for “inhaled.”
After performing the experiment of Experimental Example <3-1> above, Th2 cytokine (interleukin 5, 13) in bronchoalveolar was measured by sandwich type enzyme immunoassay. […] The content of each cytokine was measured using the kit according to the manufacturer's instruction.

[4] = test system: Tumor Necrosis Factor Alpha (TNF-alpha); test: Inhibition of TNF-alpha generation in LPS-treated Raw 264.7 cells (ELISA); format: cell-based; details: Mus musculus, RAW264.7; Raw 264.7, LPS treated; read-out: Grades of IC50 on TNF-alpha generation
Experimental: Raw 264.7 cells were distributed by the same manner as described in Experimental Example <2-1>, which were treated with the samples selected due to their high NO and IL-6 suppressing effect at different concentrations. TNF-alpha included in the supernatant was measured by enzyme-linked immunosorbent assay (TNF-alpha ELISA kit, R&D Systems, MN, USA).
Particularly, 100-fold diluted supernatant was distributed in a 96-well plate on which TNF-alpha antibody was attached, followed by adhesion for 2 hours. The supernatant remaining after the adhesion was washed with a washing buffer. The detection antibody and HRP were adhered on the washed plate for 1 hour. The remaining antibody was washed. Color development was induced by using TMB substrate. The reaction was terminated with sulfuric acid solution. Then, OD450 was measured. TNF-alpha in the supernatant was quantified by using the standard curve made with the standard TNF-alpha included in the kit. TNF-alpha suppression rate was calculated by measuring the same concentration that could inhibit TNF-alpha generation up to 50% in the LPS treated group and the results are shown in Table 9.

COc1cc(CCCO)cc2cc(-c3ccc(C)cc3)oc12 [Example 4, 3-(7-methoxy-2-p-tolylbenzofuran-5-yl)propane-1-ol]
Grades of NO generation inhibition rate (%) [1]: B (B: 25<B≤35) | Grades of cell survival rate (%, in 10 μM) [2]: A (A: 90<A≤100) | Penh value (airway hyperreactivity) [3]: significantly reduced | accumulation of inflammatory cells around bronchiole (H&E) (lung tissue sections; FIG. 6): significantly reduced | proliferation of goblet cells (PAS, mucus production) (lung tissue sections; FIG. 7): significantly reduced | content of interleukin 5 in bronchoalveolar lavage fluid (interleukin 5): significantly reduced | IC50 [4]: 1000 to 3000 nM

Reference: US10053443B2, “2-phenylbenzofuran derivatives, method for preparing the same and use of the same for treating inflammatory disease” (KOREA RESEARCH INSTITUTE OF BIOSCIENCE AND BIOTECHNOLOGY, priority 2014, dated 2018)
